Assay results reported in patent publication US4259257A, “1-Phenyl-2-amino-1,3-propanediol-N-aryloxyalkyl derivatives” (Egyt Gyogyszervegyeszeti Gyar, priority 1977, dated 1981).
Counter-ions that a name gives are not always drawn. Like-named read-outs stand apart in the source and are kept apart here.

Legend:
[1] = Acute oral toxicity on mice (CFLP strain), 96 h observation; details: mouse, in vivo
Procedure: Toxicity (per os) has been determined on mice (CFLP strain) of both sexes weighing about 20 to 25 g. each, 10 mice were used for each doses and the time of observation was 96 hours.

[2] = test system: coronary insufficiency induced with glanduitrine in male rats (CFY strain); assay: Anti-anginose activity by the method of Nieschulz, coronary insufficiency induced with glanduitrine; assay type: in vivo; details: for Relative efficiency (relative anti-anginose activity): inhibition caused by Prenilamine=1; for Anti-anginose effect (inhibition %): rats, test dose 10.0 mg./kg. (compound 1), 2.0 mg./kg. (2, 3, Prenilamine), 4.0 mg./kg. (5, Lidocaine)
Procedure: Anti-anginose activity of the compounds according to the invention was tested on male rats from the CFY strain by the method of Nieschulz (Nieschulz, E. et al., Arzneimittelforschung, 5, 680/1955/). The rats weighed about 180 to 220 g. each and were narcotized prior to treatment. Electrocardiograms were registered by means of a NEK-2 ECG-instrument using a standard II output. The coronary insufficiency was induced with a 4 IE/kg. i.v. dose of glanduitrine. Prenilamine was used as a reference compound.
The acute intravenous toxicity was determined on rats of both sexes, using five animals for each doses. The relative anti-anginose activity was calculated on the basis of the following equation: [formula] Test results are shown in Table 3 below (inhibition caused by Prenilamine=1).

in vivo = details: rat, iv, read-out: LD50-value (acute intravenous toxicity)
Procedure: The acute intravenous toxicity was determined on rats of both sexes, using five animals for each doses. The relative anti-anginose activity was calculated on the basis of the following equation: [formula]

N. ischiadicus of rats = assay: Local anaesthetic activity by the method of Truant and d'Amato; assay type: in vivo; details: for Local anaesthetic activity EC50: N. ischiadicus of rats, motor-paralysis; for Local anaesthetic activity, relative efficiency: related to Lidocaine (1.0)
Procedure: The local anaesthetic activity was tested by the method of Truant and d'Amato (Truant, A. P. and Wiedling, S., Acta Chirurg. Scand. 116, 351/1958) on the N. ischiadicus of rats. The number of the animals showing the signs of characteristic motor-paralysis was recorded. As a control compound Lidocaine was used. This test can be carried out with water-soluble substances only.

isolated rat ileums = assay: Smooth muscle relaxing activity by the method of Brock et al. on isolated rat ileums; details: for Smooth muscle relaxant activity EC50: isolated rat ileums; for Smooth muscle relaxant activity, relative efficiency: related to Papaverine (1.0)
Description: For the determination of smooth muscle relaxing activity the method of Brock et al. (Brock, N, et al., Arch. Exper. Pathol. u. Pharmacol., 215, 492/1952/) was used on isolated rat ileums. Papaverine was used as reference compound. In Table 4 below the EC50 -values and the relative efficiencies calculated on the basis of the following equation are also listed: [formula]

Row | Structure (SMILES) | LD50 at 96 h [1] | Relative efficiency (relative anti-anginose activity) [2] | Anti-anginose effect (inhibition %) [2] | LD50 (in vivo) | Local anaesthetic activity EC50 (N. ischiadicus of rats) | Local anaesthetic activity, relative efficiency (N. ischiadicus of rats) | Smooth muscle relaxant activity EC50 (isolated rat ileums) | Smooth muscle relaxant activity, relative efficiency (isolated rat ileums) | LD50 (in vivo; rats, i.v.)
1 | CC(COc1ccccc1)N[C@@H](CO)[C@@H](O)c1ccccc1 (relative stereo) [Compound 2, Threo + allothreo-1-phenyl-2-phenoxy-isopropylamino-1,3-propanediol fumarate] | 200 mg/kg | 1.3 | 56% | 11 mg/kg | 0.12 µg/mL | 1.58 | 17.57 µg/mL | 0.50 | –
2 | CC(COc1ccccc1)N[C@@H](CO)[C@@H](O)c1ccccc1 (single isomer, unassigned; (+)) [Compound 3, (+) (Threo + allothreo)-1-phenyl-2-phenoxy-isopropylamino-1,3-propanediol fumarate] | 350 mg/kg | 3.0 | 67% | 21.5 mg/kg | 0.20 µg/mL | 0.95 | 8.50 µg/mL | 1.03 | –
3 | CC(COc1ccccc1)N[C@H](CO)[C@H](O)c1ccccc1 (single isomer, unassigned; (-)) [Compound 4, (-) (Threo + allothreo)-1-phenyl-2-phenoxy-isopropylamino-1,3-propanediol fumarate] | 275 mg/kg | – | – | – | 0.28 µg/mL | 0.68 | 10.78 µg/mL | 0.80 | –
4 | CC(C)N[C@@H](CO)[C@@H](O)c1ccccc1 [Compound 1, L (+) threo-1-phenyl-2-isopropylamino-1,3-propanediol] | 710 mg/kg | 3.0 | 50% | 140 mg/kg | – | – | – | – | –
5 | CC(COc1ccccc1)N[C@@H](CO)[C@H](O)c1ccccc1 (stereo partly drawn) [Compound 5, Erythro+alloerythro-1-phenyl-2-phenoxyisopropylamino-1,3-propanediol fumarate] | 2000 mg/kg | 3.0 | 64% | 45 mg/kg | – | – | – | – | –
6 | CCN(CC)CC(=O)Nc1c(C)cccc1C [Lidocaine, reference compound] | – | – | 39% | – | 0.19 µg/mL | – | – | – | –
7 | COc1ccc(Cc2nccc3cc(OC)c(OC)cc23)cc1OC [Papaverine, reference compound] | – | – | – | – | – | – | 8.78 µg/mL | 1.0 | –
8 | CC(Cc1ccccc1)NCCC(c1ccccc1)c1ccccc1 (stereo not drawn) [Prenilamine, 3,3-diphenylpropyl-1-methylphenethylamine, reference compound] | – | 1.0 | 41% | – | – | – | – | – | 11.5 mg/kg
